{"source": "paper PMC7156458", "about": "“Synthetic biology based construction of biological activity-related library of fungal decalin-containing diterpenoid pyrones” (Nature Communications, 2020)", "target": "Aβ42 (Homo sapiens, UniProt P05067)", "sequence (P05067 672-713)": "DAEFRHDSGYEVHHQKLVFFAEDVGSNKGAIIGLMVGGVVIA", "assay": "Th-T (thioflavin-T) assay of Aβ42 aggregation", "format": "biochemical", "conditions": "for Th-T fluorescence, mean of three wells: compound at 50", "data": [{"smiles": "C=C1CC[C@@H]2[C@](C)(CC[C@H]3O[C@H](C=C(C)C)C[C@@]23C)[C@@H]1Cc1c(OC)oc(CO)c(C(=O)OC)c1=O", "note": "[Compound 21]", "values": [{"measurement": "Th-T fluorescence, mean of three wells", "setting": "reading M54 of time course", "value": 0.2222}, {"measurement": "Th-T fluorescence, mean of three wells", "setting": "reading M55 of time course", "value": 0.2197}, {"measurement": "Th-T fluorescence, mean of three wells", "setting": "reading M56 of time course", "value": 0.2209}, {"measurement": "Th-T fluorescence, mean of three wells", "setting": "reading M57 of time course", "value": 0.2237}, {"measurement": "Th-T fluorescence, mean of three wells", "setting": "reading M58 of time course", "value": 0.2252}, {"measurement": "Th-T fluorescence, mean of three wells", "setting": "reading M59 of time course", "value": 0.2206}, {"measurement": "Th-T fluorescence, mean of three wells", "setting": "reading M60 of time course", "value": 0.2276}, {"measurement": "Th-T fluorescence, mean of three wells", "setting": "reading M61 of time course", "value": 0.2285}, {"measurement": "Th-T fluorescence, mean of three wells", "setting": "reading M62 of time course", "value": 0.2296}, {"measurement": "Th-T fluorescence of Aβ42 with compound, mean of three wells (Fig. 7a source data)", "setting": "concentration 10, unit not given, time-course reading M129", "value": 1.701}, {"measurement": "Th-T fluorescence of Aβ42 with compound, mean of three wells (Fig. 7a source data)", "setting": "concentration 10, unit not given, time-course reading M130", "value": 1.706}, {"measurement": "Th-T fluorescence of Aβ42 with compound, mean of three wells (Fig. 7a source data)", "setting": "concentration 10, unit not given, time-course reading M131", "value": 1.73}, {"measurement": "Th-T fluorescence of Aβ42 with compound, mean of three wells (Fig. 7a source data)", "setting": "concentration 10, unit not given, time-course reading M132", "value": 1.6977}, {"measurement": "Th-T fluorescence of Aβ42 with compound, mean of three wells (Fig. 7a source data)", "setting": "concentration 10, unit not given, time-course reading M133", "value": 1.7165}, {"measurement": "Th-T fluorescence of Aβ42 with compound, mean of three wells (Fig. 7a source data)", "setting": "concentration 10, unit not given, time-course reading M134", "value": 1.726}, {"measurement": "Th-T fluorescence of Aβ42 with compound, mean of three wells (Fig. 7a source data)", "setting": "concentration 10, unit not given, time-course reading M135", "value": 1.717}, {"measurement": "Th-T fluorescence of Aβ42 with compound, mean of three wells (Fig. 7a source data)", "setting": "concentration 10, unit not given, time-course reading M136", "value": 1.738}, {"measurement": "Th-T fluorescence of Aβ42 with compound, mean of three wells (Fig. 7a source data)", "setting": "concentration 10, unit not given, time-course reading M137", "value": 1.7043}, {"measurement": "Th-T fluorescence of Aβ42 with compound, mean of three wells (Fig. 7a source data)", "setting": "concentration 10, unit not given, time-course reading M138", "value": 1.717}, {"measurement": "Th-T fluorescence of Aβ42 with compound, mean of three wells (Fig. 7a source data)", "setting": "concentration 10, unit not given, time-course reading M139", "value": 1.708}, {"measurement": "Th-T fluorescence of Aβ42 with compound, mean of three wells (Fig. 7a source data)", "setting": "concentration 10, unit not given, time-course reading M140", "value": 1.723}, {"measurement": "Th-T fluorescence of Aβ42 with compound, mean of three wells (Fig. 7a source data)", "setting": "concentration 10, unit not given, time-course reading M141", "value": 1.719}, {"measurement": "Th-T fluorescence of Aβ42 with compound, mean of three wells (Fig. 7a source data)", "setting": "concentration 10, unit not given, time-course reading M142", "value": 1.725}, {"measurement": "Th-T fluorescence of Aβ42 with compound, mean of three wells (Fig. 7a source data)", "setting": "concentration 10, unit not given, time-course reading M143", "value": 1.723}, {"measurement": "Th-T fluorescence of Aβ42 with compound, mean of three wells (Fig. 7a source data)", "setting": "concentration 10, unit not given, time-course reading M144", "value": 1.716}, {"measurement": "Th-T fluorescence of Aβ42 with compound, mean of three wells (Fig. 7a source data)", "setting": "concentration 10, unit not given, time-course reading M145", "value": 1.741}, {"measurement": "Th-T fluorescence of Aβ42 with compound, mean of three wells (Fig. 7a source data)", "setting": "concentration 20, unit not given, time-course reading M129", "value": 0.972}, {"measurement": "Th-T fluorescence of Aβ42 with compound, mean of three wells (Fig. 7a source data)", "setting": "concentration 20, unit not given, time-course reading M130", "value": 0.9564}, {"measurement": "Th-T fluorescence of Aβ42 with compound, mean of three wells (Fig. 7a source data)", "setting": "concentration 20, unit not given, time-course reading M131", "value": 0.9524}, {"measurement": "Th-T fluorescence of Aβ42 with compound, mean of three wells (Fig. 7a source data)", "setting": "concentration 20, unit not given, time-course reading M132", "value": 0.9585}, {"measurement": "Th-T fluorescence of Aβ42 with compound, mean of three wells (Fig. 7a source data)", "setting": "concentration 20, unit not given, time-course reading M133", "value": 0.9579}, {"measurement": "Th-T fluorescence of Aβ42 with compound, mean of three wells (Fig. 7a source data)", "setting": "concentration 20, unit not given, time-course reading M134", "value": 0.9622}, {"measurement": "Th-T fluorescence of Aβ42 with compound, mean of three wells (Fig. 7a source data)", "setting": "concentration 20, unit not given, time-course reading M135", "value": 0.9636}, {"measurement": "Th-T fluorescence of Aβ42 with compound, mean of three wells (Fig. 7a source data)", "setting": "concentration 20, unit not given, time-course reading M136", "value": 0.9565}, {"measurement": "Th-T fluorescence of Aβ42 with compound, mean of three wells (Fig. 7a source data)", "setting": "concentration 20, unit not given, time-course reading M137", "value": 0.947}, {"measurement": "Th-T fluorescence of Aβ42 with compound, mean of three wells (Fig. 7a source data)", "setting": "concentration 20, unit not given, time-course reading M138", "value": 0.9539}, {"measurement": "Th-T fluorescence of Aβ42 with compound, mean of three wells (Fig. 7a source data)", "setting": "concentration 20, unit not given, time-course reading M139", "value": 0.9666}, {"measurement": "Th-T fluorescence of Aβ42 with compound, mean of three wells (Fig. 7a source data)", "setting": "concentration 20, unit not given, time-course reading M140", "value": 0.9636}, {"measurement": "Th-T fluorescence of Aβ42 with compound, mean of three wells (Fig. 7a source data)", "setting": "concentration 20, unit not given, time-course reading M141", "value": 0.9513}, {"measurement": "Th-T fluorescence of Aβ42 with compound, mean of three wells (Fig. 7a source data)", "setting": "concentration 20, unit not given, time-course reading M142", "value": 0.9675}, {"measurement": "Th-T fluorescence of Aβ42 with compound, mean of three wells (Fig. 7a source data)", "setting": "concentration 20, unit not given, time-course reading M143", "value": 0.9558}, {"measurement": "Th-T fluorescence of Aβ42 with compound, mean of three wells (Fig. 7a source data)", "setting": "concentration 20, unit not given, time-course reading M144", "value": 0.9694}, {"measurement": "Th-T fluorescence of Aβ42 with compound, mean of three wells (Fig. 7a source data)", "setting": "concentration 20, unit not given, time-course reading M145", "value": 0.9486}, {"measurement": "Th-T fluorescence of Aβ42 with compound, mean of three wells (Fig. 7a source data)", "setting": "concentration 50, unit not given, time-course reading M129", "value": 0.5005}, {"measurement": "Th-T fluorescence of Aβ42 with compound, mean of three wells (Fig. 7a source data)", "setting": "concentration 50, unit not given, time-course reading M130", "value": 0.4954}, {"measurement": "Th-T fluorescence of Aβ42 with compound, mean of three wells (Fig. 7a source data)", "setting": "concentration 50, unit not given, time-course reading M131", "value": 0.4987}, {"measurement": "Th-T fluorescence of Aβ42 with compound, mean of three wells (Fig. 7a source data)", "setting": "concentration 50, unit not given, time-course reading M132", "value": 0.5011}, {"measurement": "Th-T fluorescence of Aβ42 with compound, mean of three wells (Fig. 7a source data)", "setting": "concentration 50, unit not given, time-course reading M133", "value": 0.5033}, {"measurement": "Th-T fluorescence of Aβ42 with compound, mean of three wells (Fig. 7a source data)", "setting": "concentration 50, unit not given, time-course reading M134", "value": 0.5026}, {"measurement": "Th-T fluorescence of Aβ42 with compound, mean of three wells (Fig. 7a source data)", "setting": "concentration 50, unit not given, time-course reading M135", "value": 0.5014}, {"measurement": "Th-T fluorescence of Aβ42 with compound, mean of three wells (Fig. 7a source data)", "setting": "concentration 50, unit not given, time-course reading M136", "value": 0.502}, {"measurement": "Th-T fluorescence of Aβ42 with compound, mean of three wells (Fig. 7a source data)", "setting": "concentration 50, unit not given, time-course reading M137", "value": 0.5003}, {"measurement": "Th-T fluorescence of Aβ42 with compound, mean of three wells (Fig. 7a source data)", "setting": "concentration 50, unit not given, time-course reading M138", "value": 0.5022}, {"measurement": "Th-T fluorescence of Aβ42 with compound, mean of three wells (Fig. 7a source data)", "setting": "concentration 50, unit not given, time-course reading M139", "value": 0.5032}, {"measurement": "Th-T fluorescence of Aβ42 with compound, mean of three wells (Fig. 7a source data)", "setting": "concentration 50, unit not given, time-course reading M140", "value": 0.5012}, {"measurement": "Th-T fluorescence of Aβ42 with compound, mean of three wells (Fig. 7a source data)", "setting": "concentration 50, unit not given, time-course reading M141", "value": 0.504}, {"measurement": "Th-T fluorescence of Aβ42 with compound, mean of three wells (Fig. 7a source data)", "setting": "concentration 50, unit not given, time-course reading M142", "value": 0.5037}]}]}
